Laboratory results reported in patent US20090170897A1, “Method of Treating Neuropathic Pain” (Pfizer, Inc., priority 2004, published 2009).

Columns and labels:
[1] = compound level in rat CSF after oral administration; type: in vivo
Protocol: Moreover the antagonist produced a long lasting anti-hyperalgesic effect in the CITH rat model. N-cyclopropyl-N-[2-methyl-1-(pyridine-3-carbonyl)-1,2,3,4-tetrahydro-quinolin-4-yl]-acetamide was dosed in the rat blood and CSF at various time points after oral administration.

[2] = system: Streptozocin (STZ)-induced diabetes neuropathy in the rat; assay: STZ-induced dynamic allodynia (cotton bud, PWL); type: in vivo
Protocol: (§1) Male Sprague Dawley rats weighing 150-400 g obtained from Charles River (Manston, Kent, UK.) were housed in groups of 3. All animals were kept under a 12 h light/dark cycle (lights on at 07 h 00 min) with food and water ad libitum. All experiments were carried out by an observer blind to the treatments and in accordance with the Home Office Animals (Scientific Procedures) Act 1986.
Diabetes was induced by a single intraperitoneal injection of streptozotocin (50 mg/kg) freshly dissolved in 0.9% sterile saline. Streptozotocin injection induces a reproducible mechanical allodynia within 3 weeks, lasting for at least 7 weeks (Chen and Pan, (Chen S R and Pan H L. Hypersensitivity of Spinothalamic Tract Neurons Associated With Diabetic Neuropathic Pain in Rats. J Neurophysiol 87: 2726-2733, 2002).
Dynamic allodynia was assessed by lightly stroking the plantar surface of the hind paw with a cotton bud. To avoid recording general motor activity, care was taken to perform this procedure in fully habituated rats that were not active. At least two measurements were taken at each time point, the mean of which represented the paw withdrawal latency (PWL). […] A pain withdrawal response was often accompanied with repeated flinching or licking of the paw. Dynamic allodynia was considered to be present if animals responded to the cotton stimulus within 8 sec of commencing stroking (Field et al, 1999).
(§2) All the experiments were conducted blind. Static allodynia was expressed as median [LQ; UQ] and analysed by Mann Whitney U test. Dynamic allodynia and thermal hyperalgesia were expressed as arithmetic mean±SEM and analysed by ANOVA.

[3] = system: Chronic Constriction Injury (CCI) rat model of neuropathic pain; assay: CCI-induced static allodynia (von Frey hairs, PWT); type: in vivo
Protocol: as §1
The CCI of sciatic nerve was performed as previously described by Bennett and Xie (Bennett G J, Xie Y K. A peripheral mononeuropathy in rat that produces disorders of pain sensation like those seen in man. Pain:33:87-107, 1988). Animals were anaesthetised with a 2% isofluorane/O2 mixture. The right hind thigh was shaved and swabbed with 1% iodine. Animals were then transferred to a homeothermic blanket for the duration of the procedure and anaesthesia maintained during surgery via a nose cone. The skin was cut along the line of the thighbone. The common sciatic nerve was exposed at the middle of the thigh by blunt dissection through biceps femoris. About 7 mm of nerve was freed proximal to the sciatic trifurcation, by inserting forceps under the nerve and the nerve gently lifted out of the thigh. Suture was pulled under the nerve using forceps and tied in a simple knot until slight resistance was felt and then double knotted. The procedure was repeated until 4 ligatures (4-0 silk) were tied loosely around the nerve with approx 1 mm spacing. The incision was closed in layers.
Animals were habituated to wire bottom test cages prior to the assessment of allodynia. Static allodynia was evaluated by application of von Frey hairs (Stoelting, Wood Dale, Ill., USA.) in ascending order of force (0.6, 1, 1.4, 2, 4, 6, 8, 10, 15 and 26 grams) to the plantar surface of hind paws. Each von Frey hair was applied to the paw for a maximum of 6 sec, or until a withdrawal response occurred. Once a withdrawal response to a von Frey hair was established, the paw was re-tested, starting with the filament below the one that produced a withdrawal, and subsequently with the remaining filaments in descending force sequence until no withdrawal occurred. The highest force of 26 g lifted the paw as well as eliciting a response, thus represented the cut off point. Each animal had both hind paws tested in this manner. The lowest amount of force required to elicit a response was recorded as paw withdrawal threshold (PWT) in grams. Static allodynia was defined as present if animals responded to a stimulus of, or less than, 4 g, which is innocuous in naive rats (Field M J, Bramwell S, Hughes J, Singh L. Detection of static and dynamic components of mechanical allodynia in rat models of neuropathic pain: are they signalled by distinct primary sensory neurones? Pain, 1999; 83:303-11).
as §2

CRTH2 receptor = biological target: T1, CRTH2 receptor (Homo sapiens, UniProt Q9Y5Y4); assay: competition binding of 3H-PGD2 at CRTH2 and DP receptors (selectivity); details: competition with 3H-PGD2 binding, IC50 at both receptors
T1 construct: Flag peptide (behind a 'prolac' signal peptide) (N); expressed in transfected cells
T1 sequence (Q9Y5Y4 1-395): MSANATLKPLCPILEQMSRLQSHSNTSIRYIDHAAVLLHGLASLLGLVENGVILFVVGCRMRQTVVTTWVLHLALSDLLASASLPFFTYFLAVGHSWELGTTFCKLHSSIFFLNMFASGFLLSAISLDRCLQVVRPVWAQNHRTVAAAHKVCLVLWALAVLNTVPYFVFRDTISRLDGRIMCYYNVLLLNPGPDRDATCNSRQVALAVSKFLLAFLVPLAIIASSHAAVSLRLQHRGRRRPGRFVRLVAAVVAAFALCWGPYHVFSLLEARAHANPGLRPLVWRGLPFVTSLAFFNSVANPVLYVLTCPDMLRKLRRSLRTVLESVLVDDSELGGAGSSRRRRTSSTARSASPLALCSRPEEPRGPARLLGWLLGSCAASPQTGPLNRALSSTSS
Protocol: A CRTH2 receptor ligand or antagonist, can be tested for selectivity for the CRTH2 receptor in comparison with DP. In the assay, the capacity of each test compound to compete with binding of ^3H-PGD2 is measured at both the CRTH2 and DP receptors, and an IC50 value (in μM) is determined. Controls can be set up using cold PGD2 to compete with ^3H-PGD2. Any of the above mentioned binding assay procedures can be used. Selectivity of CRTH2 receptor antagonists should be at least 10 fold compared to other GPCRs especially the D type of prostanoid receptor or DP receptor (N-cyclopropyl-N-[2-methyl-1-(pyridine-3-carbonyl)-1,2,3,4-tetrahydro-quinolin-4-yl]-acetamide is >50 fold selective), preferably it should be at least 100 fold selective and even more preferably at least 1000 fold selective, alternatively the antagonist should be selective for CRTH2 receptor over any of the receptors C3a, C5a, FMLP, LTB4, GPCR0269, GPCR0232 or GPCR0288.

- blood brain barrier penetration [1]: appears to cross the blood brain barrier
- selectivity for CRTH2 receptor compared to DP receptor (CRTH2 receptor): > 50 fold
SMILES: CC(=O)N(C1CC1)C1CC(C)N(C(=O)c2cccnc2)c2ccccc21 (stereo not shown) [N-cyclopropyl-N-[2-methyl-1-(pyridine-3-carbonyl)-1,2,3,4-tetrahydro-quinolin-4-yl]-acetamide]
- duration of biologically relevant effect, STZ dynamic allodynia ([2]; 25 mg/kg PO): up to 2 hr
- time of peak effect, STZ dynamic allodynia ([2]; 25 mg/kg PO, post compound dose): 1 h
- effect on maintenance of STZ-induced dynamic allodynia ([2]; compound 25 mg/kg PO, gabapentin 100 mg/kg PO (positive control)): reversed
- time of peak effect, static allodynia ([3]; 25 mg/kg PO (MED), post administration): 1 h
- effect on maintenance of CCI-induced static allodynia ([3]; 12.5, 25 and 50 mg/kg PO, from 14 days post surgery): reversed the maintenance of CCI-induced static and dynamic allodynia in a dose dependent manner
- MED, static allodynia ([3]; PO): 25 mg/kg
- static allodynia reversal relative to gabapentin ([3]; highest dose (50 mg/kg PO) vs gabapentin 100 mg/kg PO): curve profile comparable to gabapentin
- onset of anti-allodynic effect, static allodynia ([3]; highest dose (50 mg/kg PO), post dose, p<0.01 vs vehicle): 30 min
